Results published in patent publication US9474790B2, “Stable, protracted GLP-1/glucagon receptor co-agonists for medical use” (Novo Nordisk A/S, priority 2013, dated 2016).
Numbered stars: 1 amine (or outer) side, 2 acyl side, 3 side chain; on linkers, the order of the positions; unused ones are H or OH. Bridge positions count the residues as written; N and C are the ends. Square brackets hold non-standard residues; d marks the D form. Side chains are listed from the residue outwards. Peptide text beside a SMILES is read from it. I, II: the chains in the order shown. * marks the point of attachment. C18 diacid = O=C(O)CCCCCCCCCCCCCCCCC(=O)*; γGlu = O=C(O)[C@H](CCC(=O)[*:2])N[*:1]; Ac4c = NC1(C(=O)O)CCC1; AEEA = NCCOCCOCC(=O)O; Aib = CC(C)(N)C(=O)O

Tests used:
human GLP-1 receptor = molecular target: T1, human GLP-1 receptor (Homo sapiens, UniProt P43220); assay: GLP-1 receptor binding, 125I-GLP-1 displacement SPA on isolated membranes; conditions: displacement of 125I-GLP-1 from membranes; read-out: IC50 GLP-1R
T1 construct: expressed in transfected cells; host or cells: BHK cells (parent BHKTS13), clone FCW467-12A/KZ10-1, with CRE luciferase
In short: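 SPA displacement of 125I-GLP-1(7-36)NH2 from membranes of BHK cells expressing human GLP-1 receptor, with WGA beads, in 50 mM HEPES, 5 mM EGTA, 5 mM MgCl2, 0.005% Tween 20, pH 7.4. Incubated 2 h at 30°C; IC50 by non-linear regression, run at ≤0.001% or 2.0% final serum albumin.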

[1] = Chemical stability assessment by RP-UPLC; type: physicochemical; conditions: 333 μM, 8 mM phosphate buffer pH 7.3, 37° C. vs 5° C.
In short: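 Purity loss = (purity after 14 days at 5° C. minus that at 37° C.) relative to the 5° C. value, purity being main-peak area % by RP-UPLC with UV at 215 nm. Samples were 333 μM in 8 mM phosphate, pH 7.3; gradient adjusted for outlying retention times.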

T1 sequence (P43220 24-463): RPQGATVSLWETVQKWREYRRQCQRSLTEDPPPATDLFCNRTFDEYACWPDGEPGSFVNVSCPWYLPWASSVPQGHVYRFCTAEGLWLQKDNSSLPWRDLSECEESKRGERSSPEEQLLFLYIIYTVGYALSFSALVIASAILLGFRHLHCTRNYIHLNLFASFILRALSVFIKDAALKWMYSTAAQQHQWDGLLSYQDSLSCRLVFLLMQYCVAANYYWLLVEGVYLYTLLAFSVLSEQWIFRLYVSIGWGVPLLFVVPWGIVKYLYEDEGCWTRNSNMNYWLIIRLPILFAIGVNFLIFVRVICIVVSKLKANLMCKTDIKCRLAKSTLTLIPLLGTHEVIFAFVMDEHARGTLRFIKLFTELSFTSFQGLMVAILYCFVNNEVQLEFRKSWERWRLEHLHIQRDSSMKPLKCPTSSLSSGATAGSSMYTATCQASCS

IC50 (human GLP-1 receptor) [nM] | Purity loss; 14 days at 37° C. [1] [%] | Compound
0.2 | 2 | CC(C)C[C@H](NC(=O)[C@H](CC(=O)O)NC(=O)[C@H](CC(C)C)NC(=O)[C@H](Cc1ccc(O)cc1)NC(=O)[C@H](CCCCN)NC(=O)[C@H](CO)NC(=O)[C@H](CC(C)C)NC(=O)[C@H](CC(=O)O)NC(=O)[C@H](CO)NC(=O)[C@@H](NC(=O)[C@H](Cc1ccccc1)NC(=O)[C@@H](NC(=O)CNC(=O)[C@H](CCC(N)=O)NC(=O)C1(NC(=O)[C@@H](N)Cc2c[nH]cn2)CCC1)[C@@H](C)O)[C@@H](C)O)C(=O)N[C@@H](CCCCN)C(=O)N[C@@H](CCCNC(=N)N)C(=O)N[C@@H](C)C(=O)N[C@@H](CCCNC(=N)N)C(=O)N[C@@H](CCC(=O)O)C(=O)N[C@@H](Cc1ccccc1)C(=O)N[C@H](C(=O)N[C@@H](CCC(N)=O)C(=O)N[C@@H](Cc1c[nH]c2ccccc12)C(=O)N[C@@H](CC(C)C)C(=O)N[C@@H](CC(C)C)C(=O)N[C@@H](CCCCNC(=O)CNC(=O)[C@H](CO)NC(=O)[C@H](CCC(=O)O)NC(=O)CNC(=O)[C@H](CO)NC(=O)CC[C@H](NC(=O)CC[C@H](NC(=O)CCCCCCCCCCCCCCCCC(=O)O)C(=O)O)C(=O)O)C(=O)N[C@H](C(N)=O)[C@@H](C)O)C(C)C [Example 48] (I: H-H[Ac4c]QGTFTSDLSKYLDLKRAREFVQWLLKT-NH2 / II: {C18 diacid-γGlu-γGlu}-SGESG; amide I:28-II:C; N-terminus assumed)
0.4 | 2 | CC(C)C[C@H](NC(=O)[C@H](CC(=O)O)NC(=O)[C@H](CC(C)C)NC(=O)[C@H](Cc1ccc(O)cc1)NC(=O)[C@H](CCCCN)NC(=O)[C@H](CO)NC(=O)[C@H](CC(C)C)NC(=O)[C@H](CC(=O)O)NC(=O)[C@H](CO)NC(=O)[C@@H](NC(=O)[C@H](Cc1ccccc1)NC(=O)[C@@H](NC(=O)CNC(=O)[C@H](CCC(N)=O)NC(=O)C1(NC(=O)[C@@H](N)Cc2c[nH]cn2)CCC1)[C@@H](C)O)[C@@H](C)O)C(=O)N[C@@H](CCCNC(=N)N)C(=O)N[C@@H](CCCNC(=N)N)C(=O)N[C@@H](C)C(=O)N[C@@H](CCCNC(=N)N)C(=O)N[C@@H](CCC(=O)O)C(=O)N[C@@H](Cc1ccccc1)C(=O)N[C@H](C(=O)N[C@@H](CCC(N)=O)C(=O)N[C@@H](Cc1c[nH]c2ccccc12)C(=O)N[C@@H](CC(C)C)C(=O)N[C@@H](CC(C)C)C(=O)N[C@@H](CCCCNC(=O)CC[C@H](NC(=O)CC[C@H](NC(=O)COCCOCCNC(=O)COCCOCCNC(=O)CC[C@H](NC(=O)CC[C@H](NC(=O)CCCCCCCCCCCCCCCCC(=O)O)C(=O)O)C(=O)O)C(=O)O)C(=O)O)C(=O)N[C@H](C(N)=O)[C@@H](C)O)C(C)C [Example 49, N^ε28-[(4S)-4-carboxy-4-[[(4S)-4-carboxy-4-[[2-[2-[2-[[2-[2-[2-[[(4S)-4-carboxy-4-[[(4S)-4-carboxy-4-(17-carboxyheptadecanoylamino)butanoyl]amino]butanoyl]amino]ethoxy]ethoxy]acetyl]amino]ethoxy]ethoxy]acetyl]amino]butanoyl]amino]butanoyl]-[Acb2,Leu10,Leu16,Arg20,Glu21,Leu27,Lys28]-Glucagon amide] (H-H[Ac4c]QGTFTSDLSKYLDLRRAREFVQWLLK([γGlu-γGlu-AEEA-AEEA-γGlu-γGlu-C18 diacid])T-NH2; N-terminus assumed)
0.7 | 3 | CC(C)C[C@H](NC(=O)[C@H](Cc1c[nH]c2ccccc12)NC(=O)[C@H](CCC(N)=O)NC(=O)[C@@H](NC(=O)[C@H](Cc1ccccc1)NC(=O)[C@H](CCC(=O)O)NC(=O)[C@H](CCCNC(=N)N)NC(=O)[C@H](C)NC(=O)[C@H](CCCNC(=N)N)NC(=O)[C@H](CCCNC(=N)N)NC(=O)C(C)(C)NC(=O)[C@H](CC(=O)O)NC(=O)[C@H](CC(C)C)NC(=O)[C@H](Cc1ccc(O)cc1)NC(=O)[C@H](CCCCN)NC(=O)[C@H](CO)NC(=O)[C@H](CC(C)C)NC(=O)[C@H](CC(=O)O)NC(=O)[C@H](CO)NC(=O)[C@@H](NC(=O)[C@H](Cc1ccccc1)NC(=O)[C@@H](NC(=O)CNC(=O)[C@H](CCC(N)=O)NC(=O)C(C)(C)NC(=O)[C@@H](N)Cc1c[nH]cn1)[C@@H](C)O)[C@@H](C)O)C(C)C)C(=O)N[C@@H](CC(C)C)C(=O)N[C@@H](CCCCNC(=O)CC[C@H](NC(=O)CC[C@H](NC(=O)COCCOCCNC(=O)COCCOCCNC(=O)CC[C@H](NC(=O)CCCCCCCCCCCCCCCCC(=O)O)C(=O)O)C(=O)O)C(=O)O)C(=O)N[C@H](C(N)=O)[C@@H](C)O [Example 51, N^ε28-[(4S)-4-carboxy-4-[[(4S)-4-carboxy-4-[[2-[2-[2-[[2-[2-[2-[[(4S)-4-carboxy-4-(17-carboxyheptadecanoylamino)butanoyl]amino]ethoxy]ethoxy]acetyl]amino]ethoxy]ethoxy]acetyl]amino]butanoyl]amino]butanoyl]-[Aib2,Leu10,Aib16,Arg20,Glu21,Leu27,Lys28]-Glucagon amide] (H-H[Aib]QGTFTSDLSKYLD[Aib]RRAREFVQWLLK([γGlu-γGlu-AEEA-AEEA-γGlu-C18 diacid])T-NH2; N-terminus assumed)
0.2 | 1 | CC(C)C[C@H](NC(=O)[C@H](Cc1ccc(O)cc1)NC(=O)[C@H](CCCCN)NC(=O)[C@H](CO)NC(=O)[C@H](CC(C)C)NC(=O)[C@H](CC(=O)O)NC(=O)[C@H](CO)NC(=O)[C@@H](NC(=O)[C@H](Cc1ccccc1)NC(=O)[C@@H](NC(=O)CNC(=O)[C@H](CCC(N)=O)NC(=O)C(C)(C)NC(=O)[C@@H](N)Cc1c[nH]cn1)[C@@H](C)O)[C@@H](C)O)C(=O)N[C@@H](CCC(=O)O)C(=O)N[C@@H](CO)C(=O)N[C@@H](CCCCN)C(=O)N[C@@H](CCCNC(=N)N)C(=O)N[C@@H](C)C(=O)N[C@@H](CCCNC(=N)N)C(=O)N[C@@H](CCC(=O)O)C(=O)N[C@@H](Cc1ccccc1)C(=O)N[C@H](C(=O)N[C@@H](CCC(N)=O)C(=O)N[C@@H](Cc1c[nH]c2ccccc12)C(=O)N[C@@H](CC(C)C)C(=O)N[C@@H](CC(C)C)C(=O)N[C@@H](CCCCNC(=O)CC[C@H](NC(=O)CC[C@H](NC(=O)[C@H](CO)NC(=O)[C@H](CCC(=O)O)NC(=O)[C@H](CO)NC(=O)CC[C@H](NC(=O)CC[C@H](NC(=O)CCCCCCCCCCCCCCCCC(=O)O)C(=O)O)C(=O)O)C(=O)O)C(=O)O)C(=O)N[C@H](C(N)=O)[C@@H](C)O)C(C)C [Example 54, N^ε28-[(4S)-4-carboxy-4-[[(4S)-4-carboxy-4-[[(2S)-2-[[(2S)-4-carboxy-2-[[(2S)-2-[[(4S)-4-carboxy-4-[[(4S)-4-carboxy-4-(17-carboxyheptadecanoylamino)butanoyl]amino]butanoyl]amino]-3-hydroxypropanoyl]amino]butanoyl]amino]-3-hydroxypropanoyl]amino]butanoyl]amino]butanoyl]-[Aib2,Leu10,Glu15,Lys17,Arg20,Glu21,Leu27,Lys28]-Glucagon amide] (H-H[Aib]QGTFTSDLSKYLESKRAREFVQWLLK([γGlu-γGlu-Ser-Glu-Ser-γGlu-γGlu-C18 diacid])T-NH2; N-terminus assumed)
1.1 | 2 | CC(C)C[C@H](NC(=O)[C@H](CC(=O)O)NC(=O)[C@H](CC(C)C)NC(=O)[C@H](Cc1ccc(O)cc1)NC(=O)[C@H](CCCCN)NC(=O)[C@H](CO)NC(=O)[C@H](CC(C)C)NC(=O)[C@H](CC(=O)O)NC(=O)[C@H](CO)NC(=O)[C@@H](NC(=O)[C@H](Cc1ccccc1)NC(=O)[C@@H](NC(=O)CNC(=O)[C@H](CCC(N)=O)NC(=O)C(C)(C)NC(=O)[C@@H](N)Cc1c[nH]cn1)[C@@H](C)O)[C@@H](C)O)C(=O)N[C@@H](CCCNC(=N)N)C(=O)N[C@@H](CCCNC(=N)N)C(=O)N[C@@H](C)C(=O)N[C@@H](CCCNC(=N)N)C(=O)N[C@@H](CC(=O)O)C(=O)N[C@@H](Cc1ccccc1)C(=O)N[C@H](C(=O)N[C@@H](CCC(N)=O)C(=O)N[C@@H](Cc1c[nH]c2ccccc12)C(=O)N[C@@H](CC(C)C)C(=O)N[C@@H](CC(C)C)C(=O)N[C@@H](CCCCNC(=O)CNC(=O)[C@H](CO)NC(=O)[C@H](CCC(=O)O)NC(=O)[C@H](CO)NC(=O)CC[C@H](NC(=O)CC[C@H](NC(=O)CCCCCCCCCCCCCCCCC(=O)O)C(=O)O)C(=O)O)C(=O)N[C@H](C(N)=O)[C@@H](C)O)C(C)C [Example 55, N^ε28-[2-[[(2S)-2-[[(2S)-4-carboxy-2-[[(2S)-2-[[(4S)-4-carboxy-4-[[(4S)-4-carboxy-4-(17-carboxyheptadecanoylamino)butanoyl]amino]butanoyl]amino]-3-hydroxypropanoyl]amino]butanoyl]amino]-3-hydroxypropanoyl]amino]acetyl]-[Aib2,Leu10,Leu16,Arg20,Leu27,Lys28]-Glucagon amide] (H-H[Aib]QGTFTSDLSKYLDLRRARDFVQWLLK([Gly-Ser-Glu-Ser-γGlu-γGlu-C18 diacid])T-NH2; N-terminus assumed)
